According to US10155047B2, “Polymers having therapeutically active agents conjugated thereto, processes of preparing same and uses thereof” (Ramot at Tel-Aviv University Ltd., priority 2012, dated 2018):
Ends that are not written are not given here.

Assays:
[1] = system: HUVECs; assay: Capillary-like tube formation assay of HUVECs; assay type: cell-based, human; conditions: PTX-equivalent concentrations of 80 nM
Procedure: The surface of 24-well plates is coated with Cultrex® basement membrane (50 μl/well; 10 mg/ml) on ice and then allowed to polymerize at 37° C. for 30 minutes. HUVECs (3×10^4) are seeded on coated plates in the presence of conditioned media of tumor cells treated with the conjugate and its controls. After 8 hours of incubation (37° C.; 5% CO2), wells are imaged using bright-field technique (Nikon TE2000E inverted microscope integrated with Nikon DS5 cooled CCD camera by 4× objective).
The effect of the PGA-PTX-DOX conjugate (Route 1, see, FIG. 18) on capillary-like tube formation of HUVECs was tested and compared to that of the free drugs, each alone and in combination, to that of PGA alone and to that of a PGA-PTX conjugate.
The effect of PGA, free PTX (80 nM), free C3, the conjugate PGA-C3, and the conjugates PGA-PTX and PGA-PTX-C3, at PTX-equivalent concentrations of 80 nM, on capillary-like tube formation of human umbilical vein endothelial cells (HUVEC) was evaluated, in order to confirm that anti-angiogenic properties of PTX are maintained after conjugation.

[2] = Zeta potential of conjugates; assay type: physicochemical; conditions: Table 13
[3] = Conjugate size by DLS analysis; assay type: physicochemical; conditions: estimated from DLS analysis
Source text: Based on DLS analysis, it is estimated that the conjugate is 10 nm in size, which is a suitable size for selective distribution by the EPR effect.

[4] = system: ES-2 cells; assay: ES-2 proliferation after 7 minutes treatment, wash and 72 hours in medium; assay type: cell-based, human; conditions: wash
Procedure: The effect of PGA, free PTX and the conjugates PGA-PTX, PGA-C3, and PGA-PTX-C3 on proliferation of ES-2 cells was evaluated after incubation of the cells with each treatment for 7 minutes, washing the cells and incubation in medium for 72 hours.
Short incubation time was selected since in the usual 72-hour incubation time, both the targeted and non-targeted conjugates would have had sufficient time to internalize into the cells. Under these experiment conditions, only the targeted conjugate remained bound to the cells, while non-targeted polymers or conjugates washed off, resulting in lower efficacy.

PGA-C3-PTX: PGA having attached C3 NCAM targeting peptide (SEQ ID NO:3) and PTX (GASKKPKRNIKA; also: conjugated to polyglutamic acid (PGA) and paclitaxel, site not given here)
inhibition of capillary-like tube formation [1]: inhibited the formation of capillary-like tubes | Zeta potential [2]: −27.3 mV | size of the conjugate [3]: 10 nm | inhibition of proliferation [4]: inhibited the proliferation of ES-2 cells more than non-targeted PGA-PTX
